Tested on: M1 (rhabdomyosarcoma)
Assay: M1 tumor response after PDT (verteporfin 1.0 mg/kg i.v. + light) with or without intratumoral DETOX B-SE
Assay type: in vivo, mice
Procedure: DETOX™ B-SE (Stable Emulsion) (LOT # PD: 071899-575-114) is a 1.0% squalene oil-in-water emulsion containing 145 μg/mL cell wall skeleton (CWS) from Mycobacterium phlei and 25 μg/mL monophosphoryl lipid A (MPL) from Salmonella minnesota R595 [Corixa Inc.]. DETOX™ B-SE was prepared according to the manufacturer's recommendations. Two concentrations were prepared by diluting DETOX™ B-SE in sterile PBS: 1:10 (7.25 μg/mL CWS, 1.25 μg/mL MPL) or 1:2.5 (29.0 μg/mL CWS, 5.0 μg/mL MPL). Aliquots (50 μL) were drawn into a tuberculin syringe with a 27 gauge needle prior to intratumoral injection.
Mice used in the experiments described below were implanted intradermally with a suspension of 2×10^4 M1 (rhabdomyosarcoma) cells on the right flank. Approximately six to ten days after implantation, the site was shaved and tumor growth measured using vernier calipers. Only mice bearing tumors 4-6 mm in diameter were selected for use.
Mice treated with PDT or PDV received 1.0 mg/kg of Verteporfin for Injection (VFI) administered intravenously by tail vein injection. Immediately after injection, the mice were placed in a darkened row of an enclosed, ventilated animal rack (condo unit) for 30 minutes. After 30 minutes, each mouse was secured in a metal holder so that the tumor was centered in a 1.0 cm diameter exposure area. The tumor site was exposed to light from an argon pump dye laser for either 14 minutes, to deliver 75 J/cm^2, or 4 minutes and 40 seconds, to deliver 25 J/cm^2. The light doses selected were chosen to deliver either a high PDT dose (75 J/cm^2) or a low PDT dose (25 J/cm 2). The exposure time in seconds was determined by dividing the light dose (J/cm^2) by light Intensity (W/cm^2).
Immediately following illumination and while still immobilized in the metal holder, mice received a single intratumoral injection of 50 μL of the 1:10 dilution DETOX™ B-SE, designed to deliver the adjuvant to the center of the tumor mass. Mice in treatment Groups 2 and 5 received 50 μL of 1:2.5 dilution following PDT. Mice in treatment Groups 3 and 6 received PDT treatment, but not adjuvant. Mice in Group 7 remained untreated and were monitored for tumor growth only. Mice in treatment Groups 1 and 4 were treated with 50 μL of 1:10 dilution following PDT.

[1] = Optimal PDT (75 J/cm^2), day 3 post-PDT
[2] = Optimal PDT (75 J/cm^2), day 7 post-PDT
[3] = Optimal PDT (75 J/cm^2), day 10 post-PDT
[4] = Optimal PDT (75 J/cm^2), day 14 post-PDT
[5] = Optimal PDT (75 J/cm^2), day 17 post-PDT
[6] = Optimal PDT (75 J/cm^2), day 20 post-PDT
[7] = Sub-optimal PDT (25 J/cm^2), day 3 post-PDT
[8] = Sub-optimal PDT (25 J/cm^2), day 7 post-PDT
[9] = Sub-optimal PDT (25 J/cm^2), day 10 post-PDT
[10] = Sub-optimal PDT (25 J/cm^2), day 14 post-PDT
[11] = Sub-optimal PDT (25 J/cm^2), day 17 post-PDT
[12] = Sub-optimal PDT (25 J/cm^2), day 20 post-PDT

benzoporphyrin derivative monoacid ring A [verteporfin]
Survival (tumour less than 1 cm long, not euthanized) [1]: 100%
Tumor-free mice [1]: 100%
Survival (tumour less than 1 cm long, not euthanized) [2]: 100%
Tumor-free mice [2]: 100%
Survival (tumour less than 1 cm long, not euthanized) [3]: 100%
Tumor-free mice [3]: 100%
Survival (tumour less than 1 cm long, not euthanized) [4]: 100%
Tumor-free mice [4]: 90%
Survival (tumour less than 1 cm long, not euthanized) [5]: 100%
Tumor-free mice [5]: 90%
Survival (tumour less than 1 cm long, not euthanized) [6]: 90%
Tumor-free mice [6]: 90%
Survival (tumour less than 1 cm long, not euthanized) [7]: 100%
Tumor-free mice [7]: 100%
Survival (tumour less than 1 cm long, not euthanized) [8]: 100%
Tumor-free mice [8]: 90%
Survival (tumour less than 1 cm long, not euthanized) [9]: 100%
Tumor-free mice [9]: 80%
Survival (tumour less than 1 cm long, not euthanized) [10]: 100%
Tumor-free mice [10]: 50%
Survival (tumour less than 1 cm long, not euthanized) [11]: 80%
Tumor-free mice [11]: 70%
Survival (tumour less than 1 cm long, not euthanized) [12]: 70%
Tumor-free mice [12]: 70%
animals with tumors that were regressing or had regressed completely by Day 20 (low dose PDT (25 J/cm^2), adjuvant, where given, high dose (1:2.5)): 2 out of 10 animals
